# Where two headings read alike, the source gives them in different places.
# Key:
# [1] = test system: GR activation in 293/MMTV-Luc cells; assay: Luciferase reporter assay in 293/MMTV-Luc cells (do not express PRLR); format: cell-based, human; details: for GRE-Luc activation: 293/MMTV-Luc cells, 72 hours
# Excerpt: In a second example, a bioassay assessed both the efficacy of free steroids as well as any nonspecific activity by anti-PRLR-ncADCs.
# [2] = test system: GR activation in 293/PRLR/GRE-Luc cells (HEK293/9xUAS-Luc2P/pBind-GR/PRLR-HA high cells); assay: GR co-activator luciferase reporter cell based assay in 293/PRLR/GRE-Luc cells; design: species or system human
# Summary of the method: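 HEK293 cells stably expressing PRLR, a Gal4–GR LBD chimera and a 9×Gal4UAS-Luc2P reporter were seeded at 20,000 per well and treated with free steroid or anti-PRLR steroid ADC. Luciferase (One-Glo) was read as RLU, and EC50 was fitted by four-parameter logistic over 10 points. Minimal activation means under 10% of free-payload maximum.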
# [3] = test system: glucocorticoid receptor (GR) activation in HEK293/MMTV-Luc cells; assay: MMTV luciferase reporter bioassay in parental HEK293/MMTV-luc cells; format: cell-based, human; details: 72 hrs of incubation
# Description: (§1) HEK293 cell line was first generated to stably express a luciferase reporter pGL4.36[luc2P/MMTV/Hygro] (Promega, #E136A), referred to herein as HEK293/MMTV-luc, and maintained in DMEM containing 10% FBS, NEAA, penicillin/streptomycin/L-glutamine, and 100 μg/mL hygromycin (complete media). […] The resulting cell line referred to herein as, HEK293/MMTV-luc/IL-2Rγ/IL7R, was maintained in complete media supplemented with 1 μg/mL puromycin, and 500m/mL G418 sulfate.
# (§2) For the bioassay, HEK293/MMTV-luc or HEK293/MMTV-luc/IL2Rγ/IL7R cells were seeded onto 96-well assay plates at 10,000 cells/well in complete media and incubated at 37° C. in 5% CO2 overnight. […] The concentrations were adjusted according to drug-to-antibody ratio for ncADCs and other techniques known to those of skill in the art. One well without any test article was also included as a control.
# (§3) Luciferase activity was measured after 6, 24, 48, and 72 hours of incubation in 37° C. at 5% CO2 on a Victor X instrument (Perkin Elmer). The results were analyzed using nonlinear regression (4-parameter logistics) with Prism 6 software (GraphPad) to obtain EC50 values. Fold activation was calculated by determining the ratio of the luciferase activity of each sample to that observed without any test article added
# [4] = test system: glucocorticoid receptor (GR) activation in HEK293/MMTV-luc/IL-2Rγ/IL7R cells; assay: IL2Rγ-ncADC bioassay, MMTV luciferase reporter in HEK293/MMTV-luc/IL2Rγ/IL7R cells; format: cell-based, human
# Description: as §1, §2, §3
# [5] = test system: GR activation in 293/GRE-Luc cells (293_PBind GR/UAS-Luc); assay: Luciferase reporter assay in antigen negative 293/GRE-Luc cells; format: cell-based, human; details: read-out: EC50 in 293/GRE-Luc; 72 hrs of incubation; antigen negative cells
# [6] = 293/PRLR/GRE-Luc cells, 72 hours
# [7] = 6, 24, and 48 hours of incubation
smiles,measurement,setting,value
CCCC1O[C@@H]2C[C@H]3[C@@H]4CCC5=CC(=O)C=C[C@]5(C)[C@H]4[C@@H](O)C[C@]3(C)[C@]2(C(=O)COc2ccc(N)cc2)O1 (stereo in doubt) [Compound 11-5],GRE-Luc activation,[1],full GRE-Luc activation
same,EC50,"[1]; Homo sapiens, 72 h, read-out: EC50 of GRE-Luc activation",0.01 to 0.1 µM
same,Fold Activation,[2]; [6],Full
same,GRE-Luc activation,[2]; [6],full GRE-Luc activation
same,EC50,"[2]; Homo sapiens, HEK293, 72 h, read-out: EC50 of GRE-Luc activation",< 0.01 µM
same,Activation in HEK293/MMTV-Luc cells,[3],showed activation
same,GR activation,[4]; [7],partial activation
same,Fold Activation,[4]; 6 hours,Partial
same,Fold Activation,[4]; 24 hours,Partial
same,Maximum fold activation,[4]; 24 hrs of incubation,relatively lower levels of activation compared to budesonide
same,Fold Activation,[4]; 48 hours,Partial
same,Fold Activation,[4]; 72 hours,Full
same,GR activation,[4]; 72 hours of incubation,full activations
same,EC50,"[4]; Homo sapiens, HEK293, 6 h",> 0.1 µM
same,EC50,"[4]; Homo sapiens, HEK293, 24 h",> 0.1 µM
same,EC50,"[4]; Homo sapiens, HEK293, 48 h",0.01 to 0.1 µM
same,EC50,"[4]; Homo sapiens, HEK293, read-out: EC50 of GR activation",0.01 to 0.1 µM
same,EC50 potency class,[4]; at 24 hours,+ (+: >100 nM)
same,EC50 potency class,[4]; at 48 hours,++ (++: 10-100 nM)
"CCCC1O[C@@H]2C[C@H]3[C@@H]4CCC5=CC(=O)C=C[C@]5(C)[C@H]4[C@@H](O)C[C@]3(C)[C@]2(C(=O)CO)O1 (stereo partly shown) [Budesonide, budesonide, reference compound]",EC50,[5],< 0.005 µM
same,GRE-Luc activation,[1],full GRE-Luc activation
same,GRE-Luc activation,[2]; [6],full GRE-Luc activation
same,EC50,"[2]; 293/PRLR/GRE-Luc cells, 72 hours, read-out: EC50",< 0.01 µM
same,EC50,"[2]; 293/PRLR/GRE-Luc cells, 72 hours, read-out: EC50 of GRE-Luc activation",< 0.01 µM
same,EC50,"[2]; 72 hours of incubation, read-out: HEK293/9xUAS-Luc2P/pBind-GR/PRLR-HA high cells EC50",< 0.01 µM
same,EC50,"[2]; read-out: EC50 in 293/PRLR/GRE-Luc, 72 hrs of incubation",0.005 to 0.01 µM
same,EC50,[2]; read-out: HEK293/9xUAS-Luc2P/pBind-GR/PRLR-HA high cells EC50,< 0.01 µM
same,Activation in HEK293/MMTV-Luc cells,[3],showed activation

# Reference: patent US11760775B2, “Steroids and protein-conjugates thereof” (Regeneron Pharmaceuticals, Inc., priority 2016, dated 2023)
